Laboratory results reported in a melting point compilation (Tetko et al.; mined from patent text by program, amines drawn as free bases though some values may be those of a salt).

melting point	SMILES
79 to 80 °C	O=C(NCc1ccc2ccn(C3CCN(CCc4ccc(F)cc4)CC3)c2c1)C(F)F
118 °C	C#CCCC(=O)N1CCC(=Cc2ccc(C3=NCCO3)cc2)CC1
215 °C	Oc1ccccc1-c1nccs1
228 to 229 °C	CN(C)C(N)=C(C#N)C#N
164 to 165 °C	CN1CCN(c2ccc(-c3cnc4c(c3)N(S(=O)(=O)c3ccccc3Cl)CCN4)cn2)CC1
140 to 142 °C	O=C1N(Cc2ccc(Cl)s2)c2ccccc2C12COc1ccc(Br)cc12 (stereo not drawn)
221 to 223 °C	CN1Cc2c(-c3noc(CCl)n3)ncn2-c2ccsc2C1=O
81.4 °C	C#CCOc1cc(Oc2ccc(F)cc2)ncn1
245 °C	O=[N+]([O-])c1cc2c(NCc3ccc4c(c3)OCO4)nc(-n3ccnc3)nc2s1
208 to 210 °C	O=C(NO)c1ccc2c(c1)CN(C(=O)c1cc3ccccc3cn1)C2
76.6 to 77.4 °C	CC1(C)CC(=O)C2C3CCCCC3C2(C)C1 (stereo not drawn)
104 °C	COc1cccc2sc(-c3ccc(C(F)(F)F)cc3)nc12
> 300 °C	O=c1c(Cl)nc2cccnc2n1-c1ccc(Cl)cc1
207 to 210 °C	CCOCc1nc2c(N)nc3ccc(N4CCOC4=O)cc3c2n1CC(C)(C)O
127 to 128 °C	Cc1oc(-c2ccccc2)nc1CCc1nc(COc2cccc(CC(=O)O)c2)co1
110 °C	COC(=O)[C@@H](Cc1ccccc1)NC(=O)Nc1n[nH]c(=S)s1
149 to 150 °C	CCOC(=O)c1ccc2c(c1)N(C(=O)c1ccccc1)Cc1ccccc1O2
142 to 145 °C	C=C(c1cc(Cl)ccc1N1CCCCC1)C(C(N)=O)c1ccc(C(=O)OCC)cc1 (stereo not drawn)
92 to 96 °C	O=C1C(=O)c2ccc(Cl)cc2C2=C1SCC1(CCN(CC(O)Cc3ccccc3)CC1)O2 (stereo not drawn)
< 50 °C	CCOC(=O)C(=Cc1cccc(OC)c1OC)N=[N+]=[N-]
147 to 149 °C	O=Cc1ccc(-c2ccccc2-c2nnn(C(c3ccccc3)(c3ccccc3)c3ccccc3)n2)cc1
137 to 139 °C	COC(=O)CCC(=NO)C(C)(C)NCCCNC(C)(C)C(Cn1ccnc1[N+](=O)[O-])=NO
164 to 166 °C	COC(=O)CC(=O)/C=C/c1c(-c2ccc(F)cc2OC)n(C(C)C)c(=O)c2ccccc12
136 to 137 °C	CCCCOC(=O)NS(=O)(=O)CCc1c(C(F)(F)F)nn(C)c1-n1ccc2cc(Cl)cnc21

melting point	SMILES
226 to 227 °C	O=c1cc(-c2ccc(O)c(CO)c2)oc2cccnc12
270 °C	CC(C)COc1cc(-c2ccc(N)c(OCC(C)C)c2)ccc1N
81 to 83 °C	COc1ccc(-c2cccc([N+](=O)[O-])c2C)cn1
144 to 146 °C	CC(c1ccc(C#Cc2ccccc2)cc1)N(O)C(N)=O (stereo not drawn)
298 to 300 °C	O=C(Nc1cnccn1)c1cn(-c2ccccc2)c2ccccc2c1=O
150 °C	COC(=O)c1c(C)nc2cccc(C)c2c1NCc1ccc(Br)cc1
92 to 95 °C	NC(c1ccnc2cc(Cl)ccc12)C1CCCC(CNc2ccnc3cc(Cl)ccc23)C1 (stereo not drawn)
55 to 56 °C	CCCCCCCCCC1OC1CO (stereo not drawn)
185 to 186 °C	Cc1ncc(C#N)c(Nc2cccc3[nH]ccc23)c1-c1ccc(OCCCl)cc1
126 to 128 °C	CN1CCC(c2c[nH]c3ccc(NC(=O)c4ccncc4)nc23)CC1
182 to 183 °C	COc1ccc(-c2cc(C(N)=O)c(=O)n(CC3CCCC3)n2)cc1
246 to 248 °C	CC(C)c1ccccc1Sc1c(O)cc(-c2ccc3c(c2)OCCO3)oc1=O
83 to 84 °C	COC(=O)c1cc(Br)c(C=O)o1
232 to 234 °C	CCS(=O)(=O)N1CCN(c2ccc(NC(=O)c3cc(=O)c4cc(OC)cc(N5CCN(C)CC5)c4o3)cc2)CC1
97 to 99 °C	CC(C)OC(=O)C(C)Oc1ncn(-c2cccc(C(F)(F)F)c2)n1 (stereo not drawn)
194 to 198 °C	CC1c2cc(C(C)(C)C)cc(C(C)(C)C)c2OP(Cl)Oc2c1cc(C(C)(C)C)cc2C(C)(C)C (stereo not drawn)
96 to 99 °C	COc1cccc([C@@]23CCC[C@@H]2C(=O)N(C)CCC3)c1 (relative stereo)
211 to 214 °C	CC=CC(=O)Nc1cc(C(C)(C)C)c(O)c(C(C)(C)C)c1
87 to 88 °C	c1ccc(COc2ccc(-c3nc(COc4cccc(CCCCn5ccnc5)c4)co3)cc2)cc1
216 to 226 °C	Cc1nc(O)c(-c2ccc(S(C)(=O)=O)cc2)s1
163 to 164 °C	CCOC(=O)C1=C(COCC(C)(O)Cc2ccccn2)NC(C)=C(C(=O)OC)C1c1cccc(Cl)c1Cl (stereo not drawn)
150 °C	CC1(C)C(C(=O)O)C1C(Br)C(Br)(Br)Br (stereo not drawn)
68 to 70 °C	CC(O)(CCC#N)c1ccc(Oc2cccc(Cl)c2)cc1 (stereo not drawn)
164 °C	CCCSc1nc(Sc2ccc(OC)cc2)c(C(=O)O)n1Cc1cc2c(cc1Cl)OCO2

melting point	SMILES
143 to 144 °C	N#CCCNC(=O)c1cccc(-c2cccc3nn(Cc4ccccc4)cc23)c1
54 to 56 °C	C[C@H]1Cc2cccc3sc(=O)n(c23)C1
205 to 208 °C	CC(=O)c1c(C)[nH]c(-c2ccc(Cl)cc2)c1N
194 to 195 °C	COc1ccc(CCOc2ccnc(-c3cccc(C(=O)O)c3)c2)cc1OC
150 °C	Cc1cc(COc2ccc(S(=O)(=O)NC[C@@H](C(=O)NO)N3CCCCC3)cc2)c2ccccc2n1
126 °C	CCC(O)Cn1c(Cl)nc2ccccc21 (stereo not drawn)
144 to 145 °C	N#CCC(=O)NCc1ccc(Cl)c(Cl)c1
126 to 130 °C	Cc1ccc(-c2nc(Cc3cc4cc(C=O)ccc4o3)c(C)o2)cc1
108 to 109 °C	COC(=O)SN(C(=O)NC(=O)c1c(F)cccc1F)c1ccc(Oc2ccc(C(F)(F)F)cc2Cl)cc1
123 to 125 °C	CN1C(=O)CCC2(C)c3ccc(Sc4ccccc4Cl)cc3CCC12 (single isomer, unassigned; (+))
168 °C	CC(C)(C)C(=O)NCCC(=O)NC1CCCCC1Nc1cccc2c1C(=O)c1ccccc1C2=O (stereo not drawn)
180 °C	COc1ccc(S(=O)(=O)C(Cc2ccccc2)C(=O)NO)cc1 (stereo not drawn)
162 to 164 °C	CON(C(=O)c1cn(C)nc1C(F)F)C(C)c1cccc(-c2ccc(Cl)c(Cl)c2)c1 (stereo not drawn)
200 to 202 °C	COc1cc2nc(N3CCN(C(=O)NC4CCCC4)CC3)nc(N)c2cc1OC
223 to 225 °C	COc1ccc2cc(-c3cc(=O)oc4cc(O)ccc34)ccc2c1
151 to 154 °C	COc1cc(Nc2c(C#N)cnc3cc(-c4ncccc4CN4CCOCC4)ccc23)c(Cl)cc1Cl
164 to 166 °C	CC(C)(C)OC(=O)N1CCN(c2c(F)cc(N3CC(CO)OC3=O)cc2F)CC1 (stereo not drawn)
252 to 254 °C	Cc1nn(-c2ccccn2)c(=O)cc1-c1ccc(O)cc1
106 to 107 °C	CC(C)(C)N(O)CP(=O)(OCc1ccccc1)OCc1ccccc1
265 to 267 °C	COc1ccc(C=CC(=O)N2CCN(c3nc(N)c4cc(OC)c(OC)cc4n3)CC2)cc1
243 to 247 °C	CC(=O)Nc1c(C(=O)c2cccc(C(N)=O)c2)[nH]c2cc(Cl)ccc12
156 to 158 °C	Cn1ccc(S(N)(=O)=O)n1
285 to 286 °C	O=C(O)c1ccc2c(c1)Cc1cccnc1O2
98 °C	OCC(O)CSC(=S)Nc1ccccn1 (stereo not drawn)

melting point	SMILES
> 310 °C	Cc1ccc(-c2c(C(N)=O)n(C)c(=O)c3ncccc23)cc1
212 to 215 °C	O=C(O)C1CCCc2c1c1ccccc1n2Cc1ccccc1 (stereo not drawn)
153 °C	CCOC(=O)c1c(O)c2cccnc2n(Cc2ccc(OC)cc2)c1=O
180 °C	CN(C)n1nnc2cc3c(cc2c1=O)OC1CCCN1C3=O (stereo not drawn)
143 to 146 °C	CC(=O)OCCC1CCc2cccc3c(C4=C(c5cn(C)c6ccccc56)C(=O)OC4=O)cn1c23 (stereo not drawn)
109 °C	CCN(C(=O)c1nn(-c2ccc(Cl)cc2Cl)c(-c2ccc(Cl)cc2)c1C)N1CC=CCC1
145 to 147 °C	O=C(O)COc1ccc(SCc2ccc(OCc3ccccc3)cc2)c2c1CCC2
131 to 132 °C	CCN(CC)CCNc1nc2cccnc2n(-c2ccc(C)cc2)c1=O
92 to 96 °C	CC(C)c1nsc(N=C(Br)N(C)C)c1C#N
220 to 221 °C	CCc1nc(C)cn1-c1ccc2nc(NC(=O)c3ccc(C(C)(C)C)cc3)cn2n1
122 to 123 °C	CC(C)(C)OC(=O)NNC(=O)N1CCC(Br)C1=O (stereo not drawn)
206 to 208 °C	CCCc1nc2c(N)nc3cc(OCc4ccccc4)ccc3c2n1CC(C)C
144 to 145 °C	CC1=Nc2ccccc2C=C(c2ccccc2)N1C
176 to 180 °C	Nc1ncc(C#Cc2ccc(Cl)cc2)c(NCCOCCO)n1
149 to 150 °C	Nc1ccc(CN2C(=O)[C@H]3CCC[C@H]3Nc3ccccc32)cc1 (relative stereo)
115 to 116 °C	CN1C(=O)SC(Cc2cn(-c3ccccc3)nc2OCc2ccccc2)C1=O (stereo not drawn)
148 to 154 °C	Cn1c(COc2ccc(CC3SC(=O)NC3=O)cc2)nc2ccc(Oc3cccc(NC(=O)Nc4cccc(C#N)c4)c3)cc21 (stereo not drawn)
107 to 110 °C	CCOC(=O)C(=O)c1cc(Cl)cc2cccnc12
106 to 115 °C	COc1ccc2c(c1)C(c1ccc(OCCN(C(C)C)C(C)C)cc1)c1c-2ccc2ccccc12 (stereo not drawn)
174 to 175 °C	CCOCc1nc2c(N)nc3ccccc3c2n1CC1(O)CCC1
155 to 157 °C	COc1cccc([C@H]2O[C@H](CC(=O)NCCc3oc(C(=O)O)cc3C(=O)O)C(=O)N(CC(C)(C)CO)c3ccc(Cl)cc32)c1OC
221 to 225 °C	CN1c2ccc(-c3cccc4ccccc34)cc2S(=O)c2cc(-c3cccc4ccccc34)ccc21
97.6 to 98.4 °C	CS(=O)(=O)CC(=O)CCc1ccccc1

SMILES	melting point
CCN(CC)C(=O)NC1CC2c3cccc4[nH]c(C(=O)OCc5ccccc5)c(c34)CC2N(C)C1 (stereo not drawn)	226 to 229 °C
CCN(CC)C(=O)Cc1c(-c2ccc(C)cc2)nc2c(C)cc(C)nn12	155 to 158 °C
O=C1NC2(C(=O)CCl)C=CC1C2 (stereo not drawn)	86 to 88 °C
